Test results from US8192962B2, “Processes for detecting toxic substances” (Daikin Industries, Ltd., priority 2001, dated 2012).

Tested on: Mitochondria-located protein genes
Assay: DNA chip mRNA expression in yeast, mitochondria-located protein genes (Table 2)
Assay type: cell-based, Saccharomyces cerevisiae S288C
Conditions: cells incubated two hours with the chemical substance
Procedure, shortened: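 S. cerevisiae S288C grown at 25° C in YPD were exposed in log phase for two hours to one toxic chemical at a growth-inhibiting, non-lethal concentration; untreated cells served as control. Poly(A) mRNA was reverse-transcribed with Cy3/Cy5-dUTP and hybridized to a whole-genome yeast DNA chip at 65° C for over 12 hours; values are fluorescence ratios versus untreated.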

## CN(C)C(=S)SSC(=S)N(C)C [(10), Tetramethylthiuram disulfide]
Yeast gene YAL039C
  The level of expressed mRNA in the presence of chemical substance/The level of expressed mRNA in the absence of chemical substance: 2.2
Yeast gene YBL022C
  The level of expressed mRNA in the presence of chemical substance/The level of expressed mRNA in the absence of chemical substance: 1.2
Yeast gene YBL030C
  The level of expressed mRNA in the presence of chemical substance/The level of expressed mRNA in the absence of chemical substance: 0.9
Yeast gene YBL038W
  The level of expressed mRNA in the presence of chemical substance/The level of expressed mRNA in the absence of chemical substance: 1.5
Yeast gene YBL099W
  The level of expressed mRNA in the presence of chemical substance/The level of expressed mRNA in the absence of chemical substance: 0.7
Yeast gene YBR003W
  The level of expressed mRNA in the presence of chemical substance/The level of expressed mRNA in the absence of chemical substance: 1.3
Yeast gene YBR044C
  The level of expressed mRNA in the presence of chemical substance/The level of expressed mRNA in the absence of chemical substance: 1.2
Yeast gene YBR091C
  The level of expressed mRNA in the presence of chemical substance/The level of expressed mRNA in the absence of chemical substance: 1.6
Yeast gene YBR122C
  The level of expressed mRNA in the presence of chemical substance/The level of expressed mRNA in the absence of chemical substance: 1.4
Yeast gene YBR185C
  The level of expressed mRNA in the presence of chemical substance/The level of expressed mRNA in the absence of chemical substance: 1.6
Yeast gene YBR221C
  The level of expressed mRNA in the presence of chemical substance/The level of expressed mRNA in the absence of chemical substance: 1.3
Yeast gene YBR251W
  The level of expressed mRNA in the presence of chemical substance/The level of expressed mRNA in the absence of chemical substance: 1.1
Yeast gene YBR282W
  The level of expressed mRNA in the presence of chemical substance/The level of expressed mRNA in the absence of chemical substance: 0.9
Yeast gene YCL057W
  The level of expressed mRNA in the presence of chemical substance/The level of expressed mRNA in the absence of chemical substance: 2.1
Yeast gene YCR046C
  The level of expressed mRNA in the presence of chemical substance/The level of expressed mRNA in the absence of chemical substance: 1.4
Yeast gene YCR083W
  The level of expressed mRNA in the presence of chemical substance/The level of expressed mRNA in the absence of chemical substance: 1.8
Yeast gene YDL067C
  The level of expressed mRNA in the presence of chemical substance/The level of expressed mRNA in the absence of chemical substance: 0.9
Yeast gene YDL181W
  The level of expressed mRNA in the presence of chemical substance/The level of expressed mRNA in the absence of chemical substance: 0.8
Yeast gene YDL198C
  The level of expressed mRNA in the presence of chemical substance/The level of expressed mRNA in the absence of chemical substance: 2.7
Yeast gene YDR079W
  The level of expressed mRNA in the presence of chemical substance/The level of expressed mRNA in the absence of chemical substance: 0.8
Yeast gene YDR178W
  The level of expressed mRNA in the presence of chemical substance/The level of expressed mRNA in the absence of chemical substance: 0.8
Yeast gene YDR231C
  The level of expressed mRNA in the presence of chemical substance/The level of expressed mRNA in the absence of chemical substance: 1.4
Yeast gene YDR258C
  The level of expressed mRNA in the presence of chemical substance/The level of expressed mRNA in the absence of chemical substance: 13.3
Yeast gene YDR298C
  The level of expressed mRNA in the presence of chemical substance/The level of expressed mRNA in the absence of chemical substance: 1.6
Yeast gene YDR347W
  The level of expressed mRNA in the presence of chemical substance/The level of expressed mRNA in the absence of chemical substance: 1.6
Yeast gene YDR377W
  The level of expressed mRNA in the presence of chemical substance/The level of expressed mRNA in the absence of chemical substance: 0.9
Yeast gene YDR529C
  The level of expressed mRNA in the presence of chemical substance/The level of expressed mRNA in the absence of chemical substance: 0.6
Yeast gene YEL024W
  The level of expressed mRNA in the presence of chemical substance/The level of expressed mRNA in the absence of chemical substance: 0.6
Yeast gene YEL039C
  The level of expressed mRNA in the presence of chemical substance/The level of expressed mRNA in the absence of chemical substance: 1.2
Yeast gene YER178W
  The level of expressed mRNA in the presence of chemical substance/The level of expressed mRNA in the absence of chemical substance: 1.3
Yeast gene YFL016C
  The level of expressed mRNA in the presence of chemical substance/The level of expressed mRNA in the absence of chemical substance: 2.9
Yeast gene YGL018C
  The level of expressed mRNA in the presence of chemical substance/The level of expressed mRNA in the absence of chemical substance: 1.4
Yeast gene YGL187C
  The level of expressed mRNA in the presence of chemical substance/The level of expressed mRNA in the absence of chemical substance: 0.6
Yeast gene YGL191W
  The level of expressed mRNA in the presence of chemical substance/The level of expressed mRNA in the absence of chemical substance: 1.3
Yeast gene YGR008C
  The level of expressed mRNA in the presence of chemical substance/The level of expressed mRNA in the absence of chemical substance: 2.4
Yeast gene YGR028W
  The level of expressed mRNA in the presence of chemical substance/The level of expressed mRNA in the absence of chemical substance: 2.0
Yeast gene YGR062C
  The level of expressed mRNA in the presence of chemical substance/The level of expressed mRNA in the absence of chemical substance: 1.4
Yeast gene YGR076C
  The level of expressed mRNA in the presence of chemical substance/The level of expressed mRNA in the absence of chemical substance: 1.8
Yeast gene YGR082W
  The level of expressed mRNA in the presence of chemical substance/The level of expressed mRNA in the absence of chemical substance: 0.9
Yeast gene YGR174C
  The level of expressed mRNA in the presence of chemical substance/The level of expressed mRNA in the absence of chemical substance: 0.7
Yeast gene YGR244C
  The level of expressed mRNA in the presence of chemical substance/The level of expressed mRNA in the absence of chemical substance: 1.1
Yeast gene YHR008C
  The level of expressed mRNA in the presence of chemical substance/The level of expressed mRNA in the absence of chemical substance: 2.4
Yeast gene YIL155C
  The level of expressed mRNA in the presence of chemical substance/The level of expressed mRNA in the absence of chemical substance: 2.9
Yeast gene YJL096W
  The level of expressed mRNA in the presence of chemical substance/The level of expressed mRNA in the absence of chemical substance: 1.4
Yeast gene YJL102W
  The level of expressed mRNA in the presence of chemical substance/The level of expressed mRNA in the absence of chemical substance: 2.2
Yeast gene YJL133W
  The level of expressed mRNA in the presence of chemical substance/The level of expressed mRNA in the absence of chemical substance: 1.4
Yeast gene YJL166W
  The level of expressed mRNA in the presence of chemical substance/The level of expressed mRNA in the absence of chemical substance: 1.2
Yeast gene YJL180C
  The level of expressed mRNA in the presence of chemical substance/The level of expressed mRNA in the absence of chemical substance: 1.4
Yeast gene YJR045C
  The level of expressed mRNA in the presence of chemical substance/The level of expressed mRNA in the absence of chemical substance: 3.0
Yeast gene YJR077C
  The level of expressed mRNA in the presence of chemical substance/The level of expressed mRNA in the absence of chemical substance: 0.7
